The values that follow are results of earlier work, collected in patent US5840756A, “Pharmaceutical composition of L-DOPA ester” (priority 1996, dated 1998).

The conditions of data set [1]: oral administration; L-DOPA ethyl ester vs L-DOPA.
Test in data set [2]: not given
This is another data set of the same source.

The conditions of data set [3]: oral or parenteral route.

As to `N[C@@H](Cc1ccc(O)c(O)c1)C(=O)O` [levodopa], in data set [1], the “Time courses of action” value is “same time courses of action”. Besides, where the note is “direct instillation of a slurry through a duodenal tube”, the “Relief from the `off` state” value is on record as “rapid relief”. Further, the “Effect of oral dosing with a dilute aqueous solution” value (oral, dilute aqueous solution) is recorded as “appeared to be effective”. The “Treated patients in whom disabling motor fluctuations appear” value (within five years after initiation, in combination with carbidopa or benserazide) was “about 50%”. The Water solubility entry in data set [2] is reported as “low water solubility”.
`CCOC(=O)[C@@H](N)Cc1ccc(O)c(O)c1` [L-DOPA ethyl ester]: in data set [1], the “Time courses of action” value is “same time courses of action”. The “Function as a prodrug of levodopa” value in data set [3] is listed as “function as a prodrug of levodopa”.
